We go through 4 compounds from publication PMC4448943 (Neurotoxicology, 2014).

One series relates to rats. The following applies: rat, in vivo, cited from earlier work.
Another series has as its target T1, hippocampal FAAH (Rattus norvegicus, UniProt P97612).
T1 sequence (P97612 1-579): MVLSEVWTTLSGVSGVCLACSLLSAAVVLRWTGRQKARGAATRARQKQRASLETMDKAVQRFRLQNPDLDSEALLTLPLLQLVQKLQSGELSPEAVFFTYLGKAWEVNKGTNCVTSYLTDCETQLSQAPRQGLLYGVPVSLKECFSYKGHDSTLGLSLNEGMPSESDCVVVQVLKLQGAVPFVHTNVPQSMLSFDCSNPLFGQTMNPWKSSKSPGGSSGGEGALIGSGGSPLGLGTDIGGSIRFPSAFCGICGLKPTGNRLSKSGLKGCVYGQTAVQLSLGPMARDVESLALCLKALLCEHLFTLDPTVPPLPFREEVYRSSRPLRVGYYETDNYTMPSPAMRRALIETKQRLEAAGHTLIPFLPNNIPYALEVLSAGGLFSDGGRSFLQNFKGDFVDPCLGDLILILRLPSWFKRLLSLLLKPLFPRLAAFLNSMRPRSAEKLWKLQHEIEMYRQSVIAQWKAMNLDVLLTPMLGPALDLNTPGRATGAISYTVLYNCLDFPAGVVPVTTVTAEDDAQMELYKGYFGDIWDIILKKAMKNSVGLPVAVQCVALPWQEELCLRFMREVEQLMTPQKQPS
The following applies: four hours after dosing, PO 0.3 and 0.6 mg/kg sc, CPO 6 and 12 mg/kg sc.

Another series addresses T2, rat hippocampal FAAH (Rattus norvegicus, UniProt P97612).
T2 sequence (P97612 1-579): T1 sequence (P97612 1-579)
Nature of the series: In vitro inhibition of hippocampal FAAH activity. The format is biochemical.

Series [1] has as its system Adult male Sprague-Dawley rats. The following applies: rat, in vivo.
A further series deals with T3, rat hippocampal AChE (Rattus norvegicus, UniProt P37136).
T3 sequence (P37136 32-614): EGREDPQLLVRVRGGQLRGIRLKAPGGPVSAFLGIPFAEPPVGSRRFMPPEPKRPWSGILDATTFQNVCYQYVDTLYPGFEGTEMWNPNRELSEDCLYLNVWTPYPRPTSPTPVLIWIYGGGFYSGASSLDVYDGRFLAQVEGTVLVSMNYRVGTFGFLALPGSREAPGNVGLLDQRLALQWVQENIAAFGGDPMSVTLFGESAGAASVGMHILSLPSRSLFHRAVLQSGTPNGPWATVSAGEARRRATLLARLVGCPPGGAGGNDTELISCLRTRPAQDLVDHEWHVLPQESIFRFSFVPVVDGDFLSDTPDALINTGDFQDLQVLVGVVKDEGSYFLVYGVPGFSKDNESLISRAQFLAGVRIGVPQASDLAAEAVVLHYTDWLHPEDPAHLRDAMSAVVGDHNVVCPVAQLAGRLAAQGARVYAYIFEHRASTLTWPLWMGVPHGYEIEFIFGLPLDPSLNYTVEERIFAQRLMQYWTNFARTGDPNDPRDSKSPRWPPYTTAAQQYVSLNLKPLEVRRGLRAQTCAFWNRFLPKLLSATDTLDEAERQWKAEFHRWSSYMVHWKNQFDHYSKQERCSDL
The format is biochemical.

A further series has as its target T4, hippocampal AChE (Rattus norvegicus, UniProt P37136).
T4 sequence (P37136 32-614): T3 sequence (P37136 32-614)
In kind it is in vivo.

In series [2] the test system is Adult male Sprague-Dawley rats. As to conditions: rat, in vivo. The source holds these as a separate data set.
Another series concerns the target T5, hippocampal MAGL (Rattus norvegicus, UniProt Q8R431).
T5 sequence (Q8R431 1-303): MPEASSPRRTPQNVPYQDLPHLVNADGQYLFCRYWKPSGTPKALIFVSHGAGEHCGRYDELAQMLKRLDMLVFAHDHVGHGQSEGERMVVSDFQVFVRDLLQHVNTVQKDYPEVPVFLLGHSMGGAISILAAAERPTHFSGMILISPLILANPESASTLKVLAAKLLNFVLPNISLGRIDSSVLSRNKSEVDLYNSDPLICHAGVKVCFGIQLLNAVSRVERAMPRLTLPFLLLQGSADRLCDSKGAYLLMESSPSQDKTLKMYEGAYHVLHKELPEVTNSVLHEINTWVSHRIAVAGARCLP
In kind it is in vivo. As to conditions: four hours after dosing; PO 0.3 and 0.6 mg/kg sc, CPO 6 and 12 mg/kg sc.

For the next series, the target named is T6, rat hippocampal MAGL (Rattus norvegicus, UniProt Q8R431).
T6 sequence (Q8R431 1-303): T5 sequence (Q8R431 1-303)
Nature of the series: In vitro inhibition of hippocampal MAGL activity. The format is biochemical. As to conditions: CPO more potent than PO.

Molecules are shown by their SMILES. Like-named read-outs stand apart in the source and are kept apart here.

The IC50 is the midpoint of a concentration-inhibition curve.

For `Cc1c(C(=O)NN2CCCCC2)nn(-c2ccc(Cl)cc2Cl)c1-c1ccc(I)cc1` [AM251, N-(piperidin-1-yl)-5-(4-iodophenyl)-1-(2,4-dichlorophenyl)-4-methyl-1H-pyrazole-3-carboxamide], the “Influence on responses to chlorpyrifos” value with rats is listed as “no influence”.
Regarding `Cc1c(C(=O)c2cccc3ccccc23)c2cccc3c2n1[C@H](CN1CCOCC1)CO3` [WIN 55,212-2], the “Effect on signs of cholinergic toxicity following acute PO exposure” value in the series with rats (po) is “reduced”.
As to `CCOP(=O)(OCC)Oc1nc(Cl)c(Cl)cc1Cl` [chlorpyrifos oxon], the figures for the “In vivo inhibition of hippocampal FAAH activity” value on hippocampal FAAH and on hippocampal FAAH (listed as CPO) were 90–95% and 80–90%, respectively. The compound further came in with an IC50 against rat hippocampal FAAH of 71 nM. The “In vitro potency at inhibiting FAAH relative to PO” value at rat hippocampal FAAH (CPO more potent than PO) is “≈ 8 fold”. The Lethality in [1] (male, Sprague-Dawley) was 0/6; in series [1] it was “no lethality”. Moreover, the “In vitro potency at inhibiting AChE relative to PO” value at rat hippocampal AChE is “≈ 2 fold”. Besides, the “In vivo inhibition of hippocampal AChE activity” value at hippocampal AChE (rat, in vivo) is 80–90%. Also, in [2], the “Involuntary movements (tremors)” value was “dose-related”. In addition, the “SLUD signs (primarily defecation and lacrimation)” value in series [2] is recorded as “slightly increased”. For the same compound, the “In vivo inhibition of hippocampal MAGL activity” value at hippocampal MAGL is recorded as 37–50%. Further, at rat hippocampal MAGL, the “In vitro potency at inhibiting MAGL relative to PO” value is listed as “≈ 19 fold”.
Consider `CCOP(=O)(OCC)Oc1ccc([N+](=O)[O-])cc1` [paraoxon, Paraoxon], for which the “In vivo inhibition of hippocampal FAAH activity” value on hippocampal FAAH is reported as 90–95%. The “In vivo inhibition of hippocampal FAAH activity” value at hippocampal FAAH (listed as PO) is on record as 80–90%. The compound also yielded an IC50 against rat hippocampal FAAH of 562 nM. For the same compound, the Lethality in series [1] (male, Sprague-Dawley, 0.6 mg/kg) is 2/14. For the same compound, the “In vivo inhibition of hippocampal AChE activity” value at hippocampal AChE (four hours after dosing, PO 0.3 and 0.6 mg/kg sc, CPO 6 and 12 mg/kg sc) was 80–90%. Moreover, in series [2], the “Involuntary movements (tremors)” value was “dose-related”; the “SLUD signs (primarily defecation and lacrimation)” value is “slightly increased”. Besides, on hippocampal MAGL, the “In vivo inhibition of hippocampal MAGL activity” value is “neither dosage of paraoxon affected MAGL activity”.
